Laboratory results as given in patent publication US20230083973A1, “SUBSTITUTED CYCLOPROPYL-2,2'-BIP[…], ANALOGUES THEREOF, AND METHODS USING SAME” (priority 2019, published 2023).
pEC50: −log10 of the molar value.

Test system: HBsAg
Assay: HBsAg assay: inhibition of HBsAg in HepG2.2.15 cells (chemiluminescence immunoassay of supernatant)
Format: cell-based, hepatitis B virus
Conditions: Hepatitis B virus, HepG2.2.15, 144 h, read-out: sAg EC50, HepG2.2.15 cells; HBsAg in supernatant at day 6 after exposure to compound; 0.5% DMSO
Protocol: Inhibition of HBsAg was determined in HepG2.2.15 cells. Cells were maintained in culture medium containing 10% fetal calf serum, […], Glutamine, penicillin/streptomycin. Cells were seeded in 96-well collagen-coated plate at a density of 30,000 cells/well. Serially diluted compounds were added to cells next day at the final DMSO concentration of 0.5%. Cells were incubated with compounds for 2-3 days, after which medium was removed. Fresh medium containing compounds was added to cells for additional 3-4 days. At day 6 after exposure of compounds, supernatant was collected, the HBsAg immunoassay (microplate-based chemiluminescence immunoassay kits, CLIA, Autobio Diagnosics Co., Zhengzhou, China, Catalog # CL0310-2) was used to determine the level of HBsAg according to manufactory instruction. Dose-response curves were generated and the EC50 value (effective concentrations that achieved 50% inhibitory effect) were determined using XLfit software. In addition, cells were seeded at a density of 5,000 cells/well for determination of cell viability in the presence and absence of compounds by using CellTiter-Glo reagent (Promega).
Table 1 illustrates EC50 values obtained by the HBsAg assay for selected compounds.

Structure (SMILES) | pEC50
CC(C)(C)S(=O)(=O)C1CN(c2cc([C@@H]3C[C@H]3c3cnc(-c4ncccn4)nc3)cc(F)c2F)C1 (relative stereo) [Example 211, trans-5-(2-(3-(3-(tert-Butylsulfonyl)azetidin-1-yl)-4,5-difluorophenyl)cyclopropyl)-2,2′-bipyrimidine] | 6.96
COCCOC1CN(c2cc([C@@H]3C[C@H]3c3cnc(-c4ncccn4)nc3)cc(F)c2F)C1 (relative stereo) [Example 212, trans-5-(2-(3,4-Difluoro-5-(3-(2-methoxyethoxy)azetidin-1-yl)phenyl)cyclopropyl)-2,2′-bipyrimidine] | 7.52
COc1cc(C2CN(c3cc([C@@H]4C[C@H]4c4cnc(-c5ncccn5)nc4)cc(F)c3F)C2)cc(F)c1F (relative stereo) [Example 213, trans-5-(2-(3-(3-(3,4-Difluoro-5-methoxyphenyl)azetidin-1-yl)-4,5-difluorophenyl)cyclopropyl)-2,2′-bipyrimidine] | 7.14
Fc1ccc(C2CN(c3cc([C@@H]4C[C@H]4c4cnc(-c5ncccn5)nc4)cc(F)c3F)C2)cc1F (relative stereo) [Example 214, trans-5-(2-(3-(3-(3,4-difluorophenyl)azetidin-1-yl)-4,5-difluorophenyl)cyclopropyl)-2,2′-bipyrimidine] | 7.34
COc1cc(C2CN(c3cc([C@@H]4C[C@H]4c4cnc(-c5ncccn5)nc4)cc(F)c3F)C2)ccc1F (relative stereo) [Example 215, trans-5-(2-(3,4-Difluoro-5-(3-(4-fluoro-3-methoxyphenyl)azetidin-1-yl)phenyl)cyclopropyl)-2,2′-bipyrimidine] | 7.15
COc1ccc(C2CN(c3cc([C@@H]4C[C@H]4c4cnc(-c5ncccn5)nc4)cc(F)c3F)C2)cc1OC (relative stereo) [Example 216, trans-5-(2-(3-(3-(3,4-Dimethoxyphenyl)azetidin-1-yl)-4,5-difluorophenyl)cyclopropyl)-2,2′-bipyrimidine] | 7.60
Cn1cnc(COc2cc([C@@H]3C[C@H]3c3cnc(-c4ncccn4)nc3)cc(F)c2F)n1 (relative stereo) [Example 217, trans-5-(2-(3,4-Difluoro-5-((1-methyl-1H-1,2,4-triazol-3-yl)methoxy)phenyl)cyclopropyl)-2,2′-bipyrimidine] | 6.70
Fc1cc([C@@H]2C[C@H]2c2cnc(-c3ncccn3)nc2)cc(OCc2nccs2)c1F (relative stereo) [Example 218, trans-2-((5-(2-([2,2′-Bipyrimidin]-5-yl)cyclopropyl)-2,3-difluorophenoxy)methyl)thiazole] | 7.24
Cn1ccc(COc2cc([C@@H]3C[C@H]3c3cnc(-c4ncccn4)nc3)cc(F)c2F)n1 (relative stereo) [Example 219, trans-5-(2-(3,4-Difluoro-5-((1-methyl-1H-pyrazol-3-yl)methoxy)phenyl)cyclopropyl)-2,2′-bipyrimidine] | 7.02
Cc1cnn(-c2cc([C@@H]3C[C@H]3c3cnc(-c4ncccn4)nc3)cc(F)c2F)c1 (relative stereo) [Example 232, trans-5-(2-(3,4-Difluoro-5-(4-methyl-1H-pyrazol-1-yl)phenyl)cyclopropyl)-2,2′-bipyrimidine] | 7.55
CN(c1cc([C@@H]2C[C@H]2c2cnc(-c3ncccn3)nc2)cc(F)c1F)C1COC1 (relative stereo) [Example 233, trans-N-(5-(2-([2,2′-Bipyrimidin]-5-yl)cyclopropyl)-2,3-difluorophenyl)-N-methyloxetan-3-amine] | 7.08
OCc1cnn(-c2cc([C@@H]3C[C@H]3c3cnc(-c4ncccn4)nc3)cc(F)c2F)c1 (relative stereo) [Example 234, trans-(1-(5-(2-([2,2′-Bipyrimidin]-5-yl)cyclopropyl)-2,3-difluorophenyl)-1H-pyrazol-4-yl)methanol] | 6.85
CO[C@H]1CN(c2cc(C3CC3c3cnc(-c4ncccn4)nc3)cc(F)c2F)C[C@H]1OC (relative stereo) [Example 235, trans-5-(2-(3-((3R,4S)-3,4-Dimethoxypyrrolidin-1-yl)-4,5-difluorophenyl)cyclopropyl)-2,2′-bipyrimidine] | 7.41
COCc1cnn(-c2cc([C@@H]3C[C@H]3c3cnc(-c4ncccn4)nc3)cc(F)c2F)c1 (relative stereo) [Example 236, trans-5-(2-(3,4-Difluoro-5-(4-(methoxymethyl)-1H-pyrazol-1-yl)phenyl)cyclopropyl)-2,2′-bipyrimidine] | 7.11
COc1cc2ncn(-c3cc([C@@H]4C[C@H]4c4cnc(-c5ncccn5)nc4)cc(F)c3F)c2cc1OC (relative stereo) [Example 237, trans-1-(5-(2-([2,2′-Bipyrimidin]-5-yl)cyclopropyl)-2,3-difluorophenyl)-5,6-dimethoxy-1H-benzo [d]imidazole] | 6.70
OC1CC2(C1)CN(c1cc([C@@H]3C[C@H]3c3cnc(-c4ncccn4)nc3)cc(F)c1F)C2 (relative stereo) [Example 238, trans-2-(5-(2-([2,2′-Bipyrimidin]-5-yl)cyclopropyl)-2,3-difluorophenyl)-2-azaspiro[3.3]heptan-6-ol] | 7.28
O[C@@H]1CN(c2cc(C3CC3c3cnc(-c4ncccn4)nc3)cc(F)c2F)C[C@H]1O (relative stereo) [Example 239, trans-(3R,4R)-1-(5-(2-([2,2′-Bipyrimidin]-5-yl)cyclopropyl)-2,3-difluorophenyl)pyrrolidine-3,4-diol] | 6.96
Fc1cc([C@@H]2C[C@H]2c2cnc(-c3ncccn3)nc2)cc(OCCCN2CCOCC2)c1F (relative stereo) [Example 240, trans-4-(3-(5-(2-([2,2′-Bipyrimidin]-5-yl)cyclopropyl)-2,3-difluorophenoxy)propyl)morpholine] | 6.68
Fc1cc([C@@H]2C[C@H]2c2cnc(-c3ncccn3)nc2)cc(F)c1OCCCN1CCOCC1 (relative stereo) [Example 241, trans-4-(3-(4-(2-([2,2′-Bipyrimidin]-5-yl)cyclopropyl)-2,6-difluorophenoxy)propyl)morpholine] | 6.08
Fc1cc([C@@H]2C[C@H]2c2cnc(-c3ncccn3)nc2)cc(F)c1OC1CC2(COC2)C1 (relative stereo) [Example 242, trans-5-(2-(4-((2-Oxaspiro[3.3]heptan-6-yl)oxy)-3,5-difluorophenyl)cyclopropyl)-2,2′-bipyrimidine] | 6.41
Fc1cc([C@@H]2C[C@H]2c2cnc(-c3ncccn3)nc2)cc(OC2CC3(COC3)C2)c1F (relative stereo) [Example 243, trans-5-(2-(3-((2-Oxaspiro[3.3]heptan-6-yl)oxy)-4,5-difluorophenyl)cyclopropyl)-2,2′-bipyrimidine] | 6.96
CN(CCO)c1cc([C@@H]2C[C@H]2c2cnc(-c3ncccn3)nc2)cc(F)c1F (relative stereo) [Example 244, trans-2-((5-(2-([2,2′-Bipyrimidin]-5-yl)cyclopropyl)-2,3-difluorophenyl)(methyl)amino)ethan-1-ol] | 7.04
COCCCn1ncc2c([C@@H]3C[C@H]3c3cnc(-c4ncccn4)nc3)cc(F)c(F)c21 (relative stereo) [Example 264, trans-4-(2-([2,2′-Bipyrimidin]-5-yl)cyclopropyl)-6,7-difluoro-1-(3-methoxypropyl)-1H-indazole] | 8.40
COCCCn1cc2c(F)cc([C@@H]3C[C@H]3c3cnc(-c4ncccn4)nc3)cc2n1 (relative stereo) [Example 267, trans-6-(2-([2,2′-Bipyrimidin]-5-yl)cyclopropyl)-4-fluoro-2-(3-methoxypropyl)-2H-indazole] | 7.89
Fc1cc(F)c2nc([C@@H]3C[C@H]3c3cnc(-c4ncccn4)nc3)sc2c1 (relative stereo) [Example 270, trans-2-(2-([2,2′-Bipyrimidin]-5-yl)cyclopropyl)-4,6-difluorobenzo[d]thiazole] | 6.30
Cc1nc2c(F)cc([C@@H]3C[C@H]3c3cnc(-c4ncccn4)nc3)cc2n1C(C)C (relative stereo) [Example 271, trans-6-(2-([2,2′-Bipyrimidin]-5-yl)cyclopropyl)-4-fluoro-1-isopropyl-2-methyl-1H-benzo[d]imidazole] | 6.60
Cc1nc2c(F)cc([C@@H]3C[C@H]3c3cnc(-c4ncccn4)nc3)cc2s1 (relative stereo) [Example 272, trans-6-(2-([2,2′-Bipyrimidin]-5-yl)cyclopropyl)-4-fluoro-2-methylbenzo[d]thiazole] | 7.14
COCCCn1cnc2cc([C@@H]3C[C@H]3c3cnc(-c4ncccn4)nc3)cc(F)c21 (relative stereo) [Example 273, trans-5-(2-([2,2′-Bipyrimidin]-5-yl)cyclopropyl)-7-fluoro-1-(3-methoxypropyl)-1H-benzo[d]imidazole] | 7.37
COCCCn1cnc2c(F)cc([C@@H]3C[C@H]3c3cnc(-c4ncccn4)nc3)cc21 (relative stereo) [Example 274, trans-6-(2-([2,2′-Bipyrimidin]-5-yl)cyclopropyl)-4-fluoro-1-(3-methoxypropyl)-1H-benzo[d]imidazole] | 7.19
COCCCn1ncc2c(F)cc([C@@H]3C[C@H]3c3cnc(-c4ncccn4)nc3)cc21 (relative stereo) [Example 275, trans-6-(2-([2,2′-Bipyrimidin]-5-yl)cyclopropyl)-4-fluoro-1-(3-methoxypropyl)-1H-indazole] | 7.12
